What was measured:
[1] = Relaxivity of monomeric Gd complexes without enzyme; type: physicochemical; conditions: for r1p (0.47T, 40°) / r1p (1.5T, 25°): no HRP
Protocol: Stock solutions of compounds 1Gd and 2Gd were prepared by dissolving the corresponding complexes in DPBS buffer solution (pH 7.4) and were kept at −4° in the dark. Every stock solution was titrated by means of ICP-MS (Elemental Research Inc.).
(§1) Relaxation times at 0.47 T was obtained on a Bruker NMS-120 Minispec spectrometer using an inversion recovery sequence, with a TR=5T1, and 15 TI points evenly spaced up to 5T1.
(§2) Relaxation times at 1.5 T was measured on a 1.5 T GE Excite MR scanner utilizing an inversion recovery sequences with TR=2000 ms, TI=50, 75, 100, 150, 200, 250, 300, 350, 400, 500, 625, 750, 1000 ms. A fixed-size region of interest was drawn to obtain the signal intensity of the samples.
(§3) The data at 0.47 T and 1.5 T were fitted to the equation Ix=I0*(1−2e^[…]) to obtain T1, where I is the signal obtained at a certain time point TI, with I0 (total signal or magnetization) and T1 being fitted values.
(§4) The relaxivities of various polymerized products were measured using a minimum of four different gadolinium complex concentrations ranging from 2.5 mM to 0.01 mM. Horseradish peroxidase (HRP) was used in the proof-of-the-principle experiments. As used herein, the descriptors 1Gd^3+ and 2Gd^3+ refer to Gd^3+-chelated compounds 1 and 2, respectively. The synthesis of 1Gd^3+ and 2Gd^3+ are described in the Examples.

HRP = target: T1, HRP (Armoracia rusticana, UniProt P00433); experiment: HRP effect over T1, well plate with different HRP amounts; type: biochemical, horseradish; conditions: for lowest enzyme activity level with detectable decrease in T1 / decrease in T1: 0.5 mM; for T1: C = 0.5 mM
T1 construct: purchased Sigma
T1 sequence (P00433 31-338): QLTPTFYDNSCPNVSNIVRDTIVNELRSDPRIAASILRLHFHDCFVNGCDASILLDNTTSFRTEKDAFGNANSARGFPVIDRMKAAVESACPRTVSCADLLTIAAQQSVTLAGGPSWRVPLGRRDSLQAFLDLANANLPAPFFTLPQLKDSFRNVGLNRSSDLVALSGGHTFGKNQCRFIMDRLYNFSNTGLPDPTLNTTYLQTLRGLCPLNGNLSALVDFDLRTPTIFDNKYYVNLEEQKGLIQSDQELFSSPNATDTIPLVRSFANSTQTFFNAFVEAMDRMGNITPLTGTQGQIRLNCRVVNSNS
Protocol: MR imaging was performed on a 1.5 T GE Excite whole body MR scanner using a 3 inch surface coil. T1-weighted images were obtained using a spin echo sequence with TR=500 ms, TE=11 ms, NEX=4.
To estimate the detection limit of these sensor substrates, a new well plate layout containing a fixed concentration of 1Gd^3+ (0.5 mM, row b1) and 2Gd^3+ (0.5 mM, row b2) supplemented with different HRP amounts (from left to right: 4, 0.4, 0.04, 0.004 U) was imaged (FIG. 10B). The use of 4 U/mL of enzyme yielded a decrease in T1 by 50 and 25% for compounds 1Gd^3+ and 2Gd^3+, respectively. Detectable decrease could be seen at enzyme specific activity levels as low as 0.04 U/mL. In this case the decrease was measured to be 15% for compound 1Gd^3+ and 12% for compound 2Gd^3+.

[2] = target: T2, horseradish peroxidase (HRP) (Armoracia rusticana, UniProt P00433); experiment: HRP-mediated oligomerization of 1Gd^3+ and 2Gd^3+: relaxivity, MALDI-MS; type: biochemical; design: purchased Sigma; conditions: for increase in relaxivity in the presence of peroxidase: 96-well plate image, 4 units HRP, DPBS; for increase in [r1p]: 0.47T and 40° C.
T2 sequence (P00433 31-338): T1 sequence (P00433 31-338)
Protocol: as §1, §2, §3
Horseradish peroxidase was purchased from Sigma as a lyophilized powder that was dissolved in PBS buffer (4 mg/mL) and its activity was measured using substantially the same the methods described by Klebanoff, S. J.; Waltersdorph, A. M.; Rosen, H. Meth Enzymol. 1984 Vol. 105, p 399-403.
Oligomerization of compounds 1Gd^3+ and 2Gd^3+ was achieved by incubating the desired solution (0.5 mL) of monomer with an excess of H2O2 3% (2 μL) and HRP (1 μg≈4 Units) for 1 hour at 40° C. Both T1 and T2 were measured at two different field strengths: 0.47T and 1.5T, this last one using a clinical magnet (1.5 T Signa, GE).
as §4

[3] = target: T3, human myeloperoxidase (MPO) (Homo sapiens, UniProt P05164); conditions: in vitro settings; reference (9); cited from earlier work
T3 construct: purchased BioDesign Inc

MPO = target: T4, MPO (Homo sapiens, UniProt P05164); experiment: Matrigel tissue model containing MPO, MR imaging at 1.5 T; type: biochemical
T4 construct: purchased BioDesign Inc
Protocol: Standard 96-well plates were prepared and imaged on a 1.5 T whole body clinical General Electric Signa MRI scanner utilizing a standard 3 inch surface coil. Inversion recovery sequences were used to measure T1 relaxation and spin echo sequences were utilized to measure T2 relaxation. T2 weighted images were obtained with TR=5000 ms and TE=100 ms with a fast spin echo sequence. T1 weighted images were obtained with spin echo sequences with the following parameters: TR=100, 200, 350, or 500, TE=11. For the Matrigel™ experiments, a relatively T2 weighted image was obtained at TR=300 ms and TE=200 ms. Single-exponential models were used to obtain T1 and T2. The relaxivities were computed by normalizing relaxation rates to the concentration of gadolinium in each sample, obtained by inductive coupled plasma (ICP) analysis performed by Galbraith Laboratories.
We also designed a tissue model system with Matrigel™ to confirm that the substrates can delineate tissues containing MPO. Substrate was added on top of Matrigel™ containing MPO, and imaged at 1.5 T one hour after sample preparation (to ensure substrate conversion), and at 24 hours after sample preparation. Utilizing this tissue model system, and using glucose/glucose oxidase as the hydrogen peroxide generating system (peroxide is released by neutrophils in vivo), we observed an MPO-specific change in the MR signal (see FIG. 8) that is visible on T1-weighted, T2-weighted, and inversion recovery images, at 1 hour after sample preparation. The changes continued to increase over time, and at 24 hours, there is a 30% increase in the longitudinal relaxation rate (5.3 s^−1 to 6.9 s^−1) and a 20% increase in the transverse relaxation rate (8.8 s^−1 to 10.6 s^−1). […] No such change was identified in control systems where MPO was not present (not shown) or glucose oxidase was not present (see the first cell in FIG. 8).

[4] = Matrigel/substrate interface, at 24 hours

T4 sequence (P05164 279-745 limits assumed): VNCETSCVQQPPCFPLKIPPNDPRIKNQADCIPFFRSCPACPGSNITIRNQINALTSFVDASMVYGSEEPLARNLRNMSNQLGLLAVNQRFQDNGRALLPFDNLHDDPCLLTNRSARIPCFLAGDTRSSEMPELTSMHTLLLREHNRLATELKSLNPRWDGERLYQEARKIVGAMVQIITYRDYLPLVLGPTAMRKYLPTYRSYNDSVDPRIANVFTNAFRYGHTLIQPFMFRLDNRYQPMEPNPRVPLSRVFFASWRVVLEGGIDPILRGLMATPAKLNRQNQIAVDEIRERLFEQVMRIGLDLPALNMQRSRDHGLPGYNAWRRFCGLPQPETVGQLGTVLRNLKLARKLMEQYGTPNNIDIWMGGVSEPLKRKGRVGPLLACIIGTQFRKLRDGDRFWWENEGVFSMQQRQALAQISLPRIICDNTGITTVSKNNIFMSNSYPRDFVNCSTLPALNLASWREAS
T4 sequence (P05164 165-273 limits assumed): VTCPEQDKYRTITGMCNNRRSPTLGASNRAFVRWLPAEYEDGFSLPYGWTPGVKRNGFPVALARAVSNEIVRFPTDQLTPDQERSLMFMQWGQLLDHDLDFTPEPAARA
T3 sequence (P05164 279-745 limits assumed): as the sequence (P05164 279-745 limits assumed) above
T3 sequence (P05164 165-273 limits assumed): as the sequence (P05164 165-273 limits assumed) above

SMILES	r1p (0.47T, 40°) ([1]; H2O pH = 4.8) [mM⁻¹ s⁻¹]	r1p (0.47T, 40°) ([1]; PBS pH = 7.4) [mM⁻¹ s⁻¹]	r1p (1.5T, 25°) ([1]; PBS pH = 7.4) [mM⁻¹ s⁻¹]	lowest enzyme activity level with detectable decrease in T1 (HRP) [U/mL]	decrease in T1 (HRP; 0.04 U/mL of enzyme) [%]	decrease in T1 (HRP; 4 U/mL of enzyme) [%]	T1 (HRP; HRP 0 U) [ms]	T1 (HRP; HRP 4 10-1 U) [ms]	T1 (HRP; HRP 4 10-2 U) [ms]	T1 (HRP; HRP 4 10-3 U) [ms]	T1 (HRP; HRP 4 U) [ms]	increase in relaxivity in the presence of peroxidase [2] [%]	increase in [r1p] ([2]; HRP) [fold]	time of MPO activation and oligomerization to reach 90% completion [3]	also measured
O=C([O-])CN(CCN(CC(=O)[O-])CC(=O)NCCc1ccc(O)cc1)CCN(CC(=O)[O-])CC(=O)NCCc1ccc(O)cc1.[Gd+3] [1Gd^3+]	4.6	~4.3	5.3	0.04	15	50	316	229	274	321	211	70	3.7		increase in relaxivity ([2]; HRP, 1.5T clinical MRI unit at 25°): 1.7 fold
O=C([O-])CN(CCN(CC(=O)[O-])CC(=O)NCCc1c[nH]c2ccc(O)cc12)CCN(CC(=O)[O-])CC(=O)NCCc1c[nH]c2ccc(O)cc12.[Gd+3] [2Gd^3+]	4.5	~4.3	5.1	0.04	12	25	339	278	303	331	271	30	2.4	about 15 minutes	r1 ([1]; well plate at 1.5T, pH 7.2, no enzyme (row 1)): 4.7 mM⁻¹ s⁻¹; increase in relaxivity ([2]; HRP, 1.5T, 25°, concentrations below 0.5 mM used for fitting): 1.4 fold; minimum increase in relaxivity ([2]; HRP, 1.5T, 25°, predicted from the obtained data): ≥ 30%; minimum relaxivity increase ([2]; pH=7.4 (PBS buffer), 0.47T, 'in an embodiment', enzyme not stated): ≥ 40%
CC(C(=O)NCC(=O)NCCc1c[nH]c2ccc(O)cc12)N1CCN(CC(=O)[O-])CCN(CC(=O)[O-])CCN(CC(=O)[O-])CC1.[Gd+3] (stereo not drawn) [5-HT-DOTA(Gd), Glycylmethyl DOTA(Gd) 5-Hydroxytryptamide]														about 15 minutes	increase in the longitudinal relaxation rate (MPO; [4]): 30%; increase in the transverse relaxation rate (MPO; [4]): 20%; longitudinal relaxation rate (MPO; at 24 hours): 6.9 s⁻¹; transverse relaxation rate (MPO; at 24 hours): 10.6 s⁻¹; longitudinal relaxation rate (MPO; starting value): 5.3 s⁻¹; transverse relaxation rate (MPO; starting value): 8.8 s⁻¹

Source: US8153784B2, “Imaging of enzyme activity” (The General Hospital Corporation, priority 2004, dated 2012)
